{
  "source": "patent US12303591B2",
  "about": "“Tumescent infiltration drug delivery of high subcutaneous drug concentrations with prolonged local and systemic effects and minimal local or systemic toxicity” (priority 2015, dated 2025)",
  "key": {"[1]": {"tested_on": "Herpes zoster", "settings": "without repeat dosing"}, "[2]": {"experiment": "Safety of tumescent drug delivery: subcutaneous infiltration of tumescent acyclovir and gentamicin", "assay_type": "in vivo, human"}, "[3]": {"experiment": "clinical", "settings": "human, in vivo"}, "[4]": {"tested_on": "Staphyloccus aureus (MRSA) ATCC 33592", "experiment": "Minimum Inhibitory Concentration (MIC) vs MRSA", "settings": "Staphylococcus aureus"}, "[5]": {"experiment": "Adverse effects / tissue toxicity after subcutaneous tumescent infiltration (TAD trial)", "source_text": "At the time when each sample of TISF was obtained, patients were examined and questioned about signs and symptoms of subcutaneous tissue toxicity including unusual soreness, tenderness, discoloration, swelling at sites of subcutaneous tumescent infiltration. […] One week after TAD patients were questioned by telephone about any signs and symptoms of subcutaneous tissue toxicity at the sites of TAD."}, "[6]": {"settings": "routine injection; cited from earlier work"}, "[7]": {"tested_on": "platelet function", "experiment": "Bleeding time and bleeding area before and after tumescent lidocaine exposure", "assay_type": "in vivo, human", "description": "The skin of the left and right thigh of a subject is cleaned and allowed to dry. […] Simultaneous 4 mm deep puncture wounds are made to the same area of the left and right thighs with disposable lancets. The puncture sites are blotted with filter paper every 30 seconds, until bleeding stops and the bleeding time for each thigh is recorded. The bleeding times of the left and right thigh are compared to determine if administration of TLAnti increases bleeding time. Normal bleeding time measured by the Duke method is 1 to 3 minutes.\nIn a preliminary experiment, bleeding time and bleeding area were measured in a patient before and after tumescent lidocaine exposure. […] In contrast, there was a 40% increase in Average Bleeding Area (BA). Bleeding Area (BA) was a more sensitive and a more specific test for platelet function compared to Bleeding Time (BT). […] In other words, TAD may reduce the risk of both post-operative surgical site infection and post-operative thromboembolism."}, "[8]": {"settings": "IV Lidocaine; neuropathic pain; cited from earlier work"}, "[9]": {"tested_on": "platelet aggregation", "settings": "cited from earlier work"}, "[10]": {"tested_on": "Staphyloccus aureus (MRSA) ATCC 33592", "experiment": "Minimum Bactericidal Concentration (MBC) vs MRSA", "assay_type": "cell-based, Staphylococcus aureus", "source_text": "Determinations of MBC followed the method described in “Report on the Working Party on Antibiotic Sensitivity Testing of the British Society of Antimicrobial Chemotherapy: A Guide to Sensitivity Testing.”"}, "[11]": {"settings": "28 mg/kg of tumescent lidocaine"}, "[12]": {"settings": "IVAD 500 mg; abdominal wall surgery; cited from earlier work"}, "[13]": {"experiment": "Phase I pharmacokinetic clinical trial: TAD vs IVAD of cefazolin and metronidazole (TISF and serum)", "settings": "for AUC / Cmax: human, in vivo"}, "[14]": {"settings": "human, in vivo"}, "[15]": {"settings": "8 of 10 obese subjects and 3 of 10 normal controls; cited from earlier work"}, "[16]": {"settings": "after vs before tumescent lidocaine exposure"}, "[17]": {"settings": "post-op tumescent lidocaine exposure, single tests T3, T4, Patient 1"}, "[18]": {"settings": "dilute drug after subcutaneous tumescent infiltration"}, "[19]": {"settings": "20 ml subcutaneous TI, 6 of 6 subjects, 6 days"}},
  "note": "Values joined by “and” are separate entries in the source; they are usually repeats but may differ in a detail not shown here. Equal entries are not always repeated. Where two headings read alike, the source gives them in different places.",
  "data": [
    {"molecule": "Nc1nc2c(ncn2COCCO)c(=O)[nH]1", "note": "[Acyclovir]", "values": [
      {"measurement": "duration of elimination of acute zoster pain", "setting": "[1]", "result": "at least 12 hours"},
      {"measurement": "clinically significant adverse effects", "setting": "[2]; in vivo, sc", "result": "without any clinically significant adverse effects"},
      {"measurement": "ecchymosis", "setting": "[2]; in vivo, sc", "result": "no ecchymosis"},
      {"measurement": "local tenderness upon palpation", "setting": "[2]; in vivo, sc", "result": "no local tenderness"}
    ]},
    {"molecule": "Cc1nnc(SCC2=C(C(=O)O)N3C(=O)[C@@H](NC(=O)Cn4cnnn4)[C@H]3SC2)s1", "note": "[Cefazolin]", "values": [
      {"measurement": "Tmax", "setting": "[3]", "result": "8 to 12", "unit": "h"},
      {"measurement": "MIC", "setting": "[4]", "result": "125 to 250", "unit": "µg/mL"},
      {"measurement": "adverse local or systemic effects", "setting": "[5]; in vivo, sc", "result": "no adverse local or systemic effects"}
    ]},
    {"molecule": "CCN(CC)CC(=O)Nc1c(C)cccc1C", "note": "[Lidocaine]", "values": [
      {"measurement": "duration of routine local anesthesia", "setting": "[6]", "result": "~2", "unit": "h"},
      {"measurement": "Average Bleeding Area (BA)", "setting": "[7]; after tumescent lidocaine exposure (Control BA = 541)", "result": "Lidocaine BA = 759"},
      {"measurement": "Average Bleeding Time (BT)", "setting": "[7]; after tumescent lidocaine exposure (Control BT = 6)", "result": "Lidocaine BT = 5.75"},
      {"measurement": "change in Average Bleeding Time (BT)", "setting": "[7]; [16]", "result": "essentially no change"},
      {"measurement": "increase in Average Bleeding Area (BA)", "setting": "[7]; [16]", "result": 40, "unit": "%"},
      {"measurement": "Bleeding Area BA", "setting": "[7]; [17]", "result": "791.81 and 726.03"},
      {"measurement": "Bleeding Time BT × 2", "setting": "[7]; [17]", "result": "10 and 13"},
      {"measurement": "mean serum lidocaine concentration at complete analgesia", "setting": "[8]", "result": "3.79 ± 1.00", "unit": "µg/mL"},
      {"measurement": "MIC", "setting": "[4]", "result": "~5000", "unit": "µg/mL"},
      {"measurement": "MIC", "setting": "[4]; read-out: MIC end point", "result": 5000, "unit": "µg/mL"},
      {"measurement": "concentrations that consistently inhibit in-vitro platelet aggregation", "setting": "[9]; aggregation induced by ADP, epinephrine and collagen", "result": "≥ 0.5", "unit": "mg/mL"},
      {"measurement": "systemic concentrations with no effect on platelet aggregation", "setting": "[9]; safe systemic concentrations", "result": "≤ 6", "unit": "micrograms/ml"},
      {"measurement": "adverse local or systemic effects", "setting": "[5]; [18]", "result": "no adverse local or systemic effects"},
      {"measurement": "MRSA survival at test concentration (MBC test)", "setting": "[10]; Day 1, 1,000 mg/L, MRSA Inoculum 4.7 × 10^5 CFU/ml", "result": "+"},
      {"measurement": "MRSA survival at test concentration (MBC test)", "setting": "[10]; Day 2, 1,000 mg/L, MRSA Inoculum 4.4 × 10^5 CFU/ml", "result": "+"},
      {"measurement": "MRSA survival at test concentration (MBC test)", "setting": "[10]; Day 2, 5,000 mg/L, MRSA Inoculum 4.4 × 10^5 CFU/ml", "result": "+"},
      {"measurement": "MRSA survival at test concentration (MBC test)", "setting": "[10]; Day 2, 10,000 mg/L, MRSA Inoculum 4.4 × 10^5 CFU/ml", "result": 0},
      {"measurement": "MBC", "setting": "[10]; Staphylococcus aureus, 48 h, read-out: MBC end point", "result": 10000, "unit": "µg/mL"},
      {"measurement": "duration of therapeutic serum lidocaine concentrations", "setting": "[11]", "result": "≥ 12", "unit": "h"}
    ]},
    {"molecule": "Cc1ncc([N+](=O)[O-])n1CCO", "note": "[Metronidazole]", "values": [
      {"measurement": "concentration in subcutaneous fat", "setting": "[12]", "result": "600 to 1700", "unit": "ng/mL"},
      {"measurement": "AUC∞ in TISF after TAD, times greater than in serum after IVAD", "setting": "[13]; 500 mg TAD vs 500 mg IVAD", "result": 8.1, "unit": "times"},
      {"measurement": "AUC", "setting": "[13]; 500 mg, Table 15B, Abdomen, TISF, TAD, 413 mg/L, with cefazolin", "result": 1030, "unit": "µg·h/mL"},
      {"measurement": "AUC", "setting": "[13]; 500 mg, Table 15B, Abdomen, serum, IVAD, with cefazolin", "result": 127, "unit": "µg·h/mL"},
      {"measurement": "AUC", "setting": "[13]; 500 mg, Table 15B, Abdomen, serum, TAD, 413 mg/L, with cefazolin", "result": 81, "unit": "µg·h/mL"},
      {"measurement": "Cmax", "setting": "[13]; 500 mg, Cmax in tumescent interstitial fluid, TAD solution containing 500 mg of metronidazole", "result": 370000, "unit": "ng/mL"},
      {"measurement": "Cmax", "setting": "[13]; 500 mg, Cmax, Table 15B, Abdomen, TISF, TAD, 413 mg/L, with cefazolin", "result": 160000, "unit": "ng/mL"},
      {"measurement": "Cmax", "setting": "[13]; 500 mg, Cmax, Table 15B, Abdomen, serum, IVAD, with cefazolin", "result": 14000, "unit": "ng/mL"},
      {"measurement": "Cmax", "setting": "[13]; 500 mg, Cmax, Table 15B, Abdomen, serum, TAD, 413 mg/L, with cefazolin", "result": 4800, "unit": "ng/mL"},
      {"measurement": "AUC", "setting": "[13]; 600 mg, Table 16B, Abdomen, serum, TAD, 172 mg/L, TAD dose 600 mg", "result": 81, "unit": "µg·h/mL"},
      {"measurement": "Cmax", "setting": "[13]; 600 mg, Cmax, Table 16B, Abdomen, TISF, TAD, 172 mg/L, TAD dose 600 mg", "result": 160000, "unit": "ng/mL"},
      {"measurement": "Cmax", "setting": "[13]; 600 mg, Cmax, Table 16B, Abdomen, serum, IVAD dose 600 mg", "result": 14000, "unit": "ng/mL"},
      {"measurement": "Cmax", "setting": "[13]; 600 mg, Cmax, Table 16B, Abdomen, serum, TAD, 172 mg/L, TAD dose 600 mg", "result": 4800, "unit": "ng/mL"},
      {"measurement": "AUC", "setting": "[13]; Table 16B, Abdomen, TISF, TAD + IVAD, 200 mg/L, TAD dose 400 mg, IVAD dose 200 mg", "result": 1130, "unit": "µg·h/mL"},
      {"measurement": "AUC", "setting": "[13]; Table 16B, Abdomen, serum, TAD + IVAD, 200 mg/L, TAD dose 400 mg, IVAD dose 200 mg", "result": 117, "unit": "µg·h/mL"},
      {"measurement": "Cmax", "setting": "[13]; Cmax, Table 16B, Abdomen, TISF, TAD + IVAD, 200 mg/L, TAD dose 400 mg, IVAD dose 200 mg", "result": 150000, "unit": "ng/mL"},
      {"measurement": "Cmax", "setting": "[13]; Cmax, Table 16B, Abdomen, serum, TAD + IVAD, 200 mg/L, TAD dose 400 mg, IVAD dose 200 mg", "result": 5900, "unit": "ng/mL"},
      {"measurement": "Tmax", "setting": "[3]", "result": "10 to 12", "unit": "h"},
      {"measurement": "adverse local or systemic effects", "setting": "[5]; in vivo, sc", "result": "no adverse local or systemic effects"},
      {"measurement": "mean Tmax (time of Cmax in serum)", "setting": "[14]", "result": 11}
    ]},
    {"molecule": "CO[C@@]1(NC(=O)Cc2cccs2)C(=O)N2C(C(=O)O)=C(COC(N)=O)CS[C@@H]21", "note": "[cefoxitin]", "values": [
      {"measurement": "subcutaneous bioavailability (AUC) of free drug after IVAD, times less than serum bioavailability", "setting": "[15]", "result": 10, "unit": "times"},
      {"measurement": "subcutaneous bioavailability by IVAD, times less than by TAD", "setting": "[13]; 10×16, for a significant proportion of patients", "result": "approximately 160 times"}
    ]},
    {"molecule": "CNC[C@H](O)c1ccc(O)c(O)c1", "note": "[epinephrine]", "values": [
      {"measurement": "adverse local or systemic effects", "setting": "[5]; [18]", "result": "no adverse local or systemic effects"}
    ]},
    {"molecule": "Gentamicin", "values": [
      {"measurement": "ecchymosis", "setting": "[2]; [19]", "result": "no ecchymosis"},
      {"measurement": "local tenderness upon palpation", "setting": "[2]; [19]", "result": "no local tenderness"},
      {"measurement": "stinging upon injection", "setting": "[2]; 20 ml subcutaneous TI, acyclovir 1 gm in 1130 ml, gentamicin 80 mg in 1110 ml tumescent lidocaine solution, 6 of 6 subjects", "result": "no stinging"},
      {"measurement": "clinically significant adverse effects", "setting": "[2]; injected subcutaneously in a dilute tumescent solution", "result": "without any clinically significant adverse effects"}
    ]}
  ]
}
